{
  "source": "paper PMC8149352",
  "about": "(Cancer Chemotherapy and Pharmacology, 2021)",
  "key": {"P-glycoprotein": {"tested_on": "P-glycoprotein", "parameters": "method as in PMID 32652442", "settings": "cited from earlier work"}, "[1]": {"parameters": "method as in PMID 27745744", "settings": "cited from earlier work"}, "[2]": {"experiment": "Part A safety: adverse events (NCI CTCAE v5.0), safety population", "format": "in vivo, human (patients with advanced solid tumors)", "settings": "Part A (N = 12); by treatment period", "description": "This was an open-label, parallel-group, phase 1 study consisting of a 2-part core phase and an extension phase. Only results for the core phases are reported herein (Supplementary Fig. 1). […] Blood samples for PK analysis were obtained on days 1 and 10 at predose, and at 0.5, 1, 2, 4, 6, 9, 12, 24, and 48 h postdose. Pamiparib plasma concentrations were determined using a validated liquid chromatography–mass spectrometry/mass spectrometry method (lower limit of quantification 1.0 ng/mL) at Covance Laboratory Services (Salt Lake City, Utah).\n(§1) Adverse events (AEs) were monitored throughout the study and were graded according to the National Cancer Institute Common Terminology Criteria v5.0.\n(§2) The safety population included all patients who received at least one dose of pamiparib. […] Plasma PK parameters were calculated from pamiparib concentration–time profiles using standard noncompartmental methods. PK parameters were calculated using Phoenix WinNonlin v6.4 or higher (Certara, Princeton, NJ, USA). […] Data for each treatment part were analyzed separately. Log-transformed AUC and Cmax values were analyzed using a linear mixed-effect model analysis assuming a fixed effect for treatment and a random effect for patients. The study design called for ~ 24 patients (12 in each part) to be enrolled to ensure at least 20 (10 in each part) completed the study. This sample size was based on the precedent set by other PK studies of a similar nature and was not based on power calculations."}, "CYP2C8": {"tested_on": "CYP2C8", "parameters": "method as in PMID 21838784", "settings": "cited from earlier work"}, "CYP3A rather than CYP2C8": {"tested_on": "CYP3A rather than CYP2C8", "parameters": "method as in PMID 11136296", "settings": "cited from earlier work"}, "[3]": {"experiment": "Part B safety: adverse events (NCI CTCAE v5.0), safety population", "format": "in vivo, human (patients with solid tumors)", "settings": "by treatment period", "description": "Part B of the core phase assessed the effect of the strong CYP3A inhibitor itraconazole on the PK of pamiparib in patients with solid tumors. All patients received a single dose of oral pamiparib 20 mg on days 1 and 7, and oral itraconazole 200 mg QD on days 3–8. The 20-mg pamiparib dose, the lowest dose strength available and one-sixth of the highest phase 1 dose (120 mg), was deemed sufficient to cover the plasma exposure increase due to complete blockade of CYP3A by itraconazole. Part B patients fasted for at least 8 h before and at least 4 h after pamiparib administration, except for day 7 upon which itraconazole administration occurred ~ 30 min after completing a meal and pamiparib administration followed within 5 min of itraconazole administration. Blood samples for PK analysis were obtained on days 1 and 7 at the same time points listed above for Part A. After completing the core phase in Part A and Part B, patients were offered participation in the extension phase, in which they were to receive pamiparib PO BID in 28-day cycles until disease progression, unacceptable toxicity, withdrawal of consent, or any other reason for discontinuation.\nas §1, §2"}, "[4]": {"settings": "olaparib with itraconazole administration"}, "[5]": {"settings": "Part B (N = 13; N = 12 for pamiparib with itraconazole)"}},
  "data": [
    {"smiles": "O=C(c1cc(Cc2n[nH]c(=O)c3ccccc23)ccc1F)N1CCN(C(=O)C2CC2)CC1", "note": "[olaparib]", "values": [
      {"measurement": "P-glycoprotein substrate status", "setting": "P-glycoprotein", "result": "substrate of P-glycoprotein"},
      {"measurement": "AUC treatment ratio with itraconazole", "setting": "[1]; [4]", "result": 2.70},
      {"measurement": "Cmax treatment ratio with itraconazole", "setting": "[1]; [4]", "result": 1.42},
      {"measurement": "AUC increase with itraconazole observed in one patient", "setting": "[1]; olaparib with itraconazole, one patient", "result": "sevenfold"}
    ]},
    {"smiles": "Cn1ncnc1[C@H]1c2n[nH]c(=O)c3cc(F)cc(c23)N[C@@H]1c1ccc(F)cc1", "note": "[talazoparib]", "values": [
      {"measurement": "P-glycoprotein substrate status", "setting": "P-glycoprotein", "result": "substrate of P-glycoprotein"}
    ]},
    {"smiles": "CO[C@H]1/C=C/O[C@@]2(C)Oc3c(C)c(O)c4c(O)c(c(/C=N/N5CCN(C)CC5)c(O)c4c3C2=O)NC(=O)/C(C)=C\\C=C\\[C@H](C)[C@H](O)[C@@H](C)[C@@H](O)[C@@H](C)[C@H](OC(C)=O)[C@@H]1C", "note": "[Rifampin, rifampin, reference compound]", "values": [
      {"measurement": "Any treatment-related TEAE, patients", "setting": "[2]", "result": "1 (8.3) n (%)"},
      {"measurement": "Grade >= 3 TEAE, patients", "setting": "[2]", "result": "0 n (%)"},
      {"measurement": "Serious AE, patients", "setting": "[2]", "result": "0 n (%)"},
      {"measurement": "Treatment-related TEAE related to both, patients", "setting": "[2]", "result": "0 n (%)"},
      {"measurement": "Treatment-related TEAE related to pamiparib only, patients", "setting": "[2]", "result": "0 n (%)"},
      {"measurement": "Treatment-related TEAE related to rifampin only, patients", "setting": "[2]", "result": "1 (8.3) n (%)"}
    ]},
    {"smiles": "CC(C)(O)c1ccccc1CC[C@@H](SCC1(CC(=O)O)CC1)c1cccc(/C=C/c2ccc3ccc(Cl)cc3n2)c1", "note": "[montelukast]", "values": [
      {"measurement": "effect of CYP2C8 inhibitor gemfibrozil on montelukast AUC", "setting": "CYP2C8", "result": "markedly increased"},
      {"measurement": "effect of itraconazole coadministration on montelukast PK", "setting": "CYP2C8", "result": "no significant effects"}
    ]},
    {"smiles": "CCC(C)n1ncn(-c2ccc(N3CCN(c4ccc(OCC5COC(Cn6cncn6)(c6ccc(Cl)cc6Cl)O5)cc4)CC3)cc2)c1=O", "note": "(centres unmarked) [Itraconazole, itraconazole, reference compound]", "values": [
      {"measurement": "specificity of inhibition for CYP3A rather than CYP2C8", "setting": "CYP3A rather than CYP2C8", "result": "~ 100 fold"},
      {"measurement": "in vivo CYP2C8 inhibition", "setting": "CYP2C8; inferred from montelukast clinical study", "result": "negligible"},
      {"measurement": "All TEAEs (any grade), patients", "setting": "[3]; [5]", "result": "2 (15.4) n (%)"},
      {"measurement": "Any treatment-related TEAE, patients", "setting": "[3]; [5]", "result": "1 (7.7) n (%)"},
      {"measurement": "Grade >= 3 TEAE, patients", "setting": "[3]; [5]", "result": "1 (7.7) n (%)"},
      {"measurement": "Serious AE, patients", "setting": "[3]; [5]", "result": "1 (7.7) n (%)"},
      {"measurement": "Treatment-related TEAE related to itraconazole only, patients", "setting": "[3]; [5]", "result": "0 n (%)"},
      {"measurement": "Treatment-related TEAE related to pamiparib only, patients", "setting": "[3]; [5]", "result": "0 n (%)"},
      {"measurement": "Serious AE related to both, patients", "setting": "[3]; Part B", "result": "0 n (%)"},
      {"measurement": "Serious AE related to itraconazole only, patients", "setting": "[3]; Part B", "result": "0 n (%)"},
      {"measurement": "Serious AE related to pamiparib only, patients", "setting": "[3]; Part B", "result": "0 n (%)"}
    ]},
    {"smiles": "CNCc1ccc(-c2[nH]c3cc(F)cc4c3c2CCNC4=O)cc1", "note": "[rucaparib]", "values": [
      {"measurement": "P-glycoprotein substrate status", "setting": "P-glycoprotein", "result": "substrate of P-glycoprotein"}
    ]},
    {"smiles": "C[C@]1(c2nc3c(C(N)=O)cccc3[nH]2)CCCN1", "note": "[veliparib]", "values": [
      {"measurement": "P-glycoprotein substrate status", "setting": "P-glycoprotein", "result": "substrate of P-glycoprotein"}
    ]}
  ]
}
